According to patent US20260297092A1, “PYRAZOLOPYRIMIDINE DERIVATIVES AS INHIBITORS OF NLRP3” (Takeda Pharmaceutical Company Limited, priority 2023, published 2026):

Experiments:
[1] = tested on: TNF-α (NF-κB pathway, THP-1 cells); assay: TNF-α Assay (IC50); assay type: cell-based, human; details: Homo sapiens, 600 ng/mL LPS, 3 hours
Procedure, shortened: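 Supernatant TNF-α quantified by ELISA after 3 h stimulation with 600 ng/mL LPS at 37 °C, following 30 min compound preincubation. Cells: IFN-differentiated (25 ng/mL, 24 h) THP-1 macrophages, 40,000/well, serum-free. IC50 by sigmoidal fit of % inhibition, with TPCA-1 as 100% control.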

[2] = tested on: NLRP3 inflammasome (IL-1β production in THP-1 cells); assay: IL-1β TR-FRET Assay (percentage of inhibition at 300 nM, 6 μM or 10 μM); assay type: cell-based, human; details: Homo sapiens, LPS priming, ATP activation; for inhibition at 0.3 µM: THP-1, 300 nM, read-out: IL-1β inhibitory rate at 300 nM (%); for inhibition at 6 µM: THP-1, 6 μM, read-out: IL-1β inhibitory rate at 6 μM (%)
Procedure, shortened: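 Percent inhibition of IL-1β used DMSO wells as 0% and 3 μM MCC-950 wells as full inhibition, with supernatant read by HTRF. Beforehand, IFN-γ-differentiated (25 ng/mL, 24 h), LPS-primed (50 ng/mL, 24 h) THP-1 cells received compound 30 min before inflammasome activation by 20 mM ATP for 2 h.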

IC50 [1] | SMILES | inhibition at 0.3 µM [2] | inhibition at 6 µM [2] | inhibition at 10 µM ([2]; THP-1, 10 μM, read-out: IL-1β inhibitory rate at 10 μM (%))
> 30 µM | CCOc1nc2nn(-c3c(C)cc(F)cc3F)cc2c(=O)[nH]1 [Example 126, 2-(2,4-difluoro-6-methylphenyl)-6-ethoxy-2,5-dihydro-4H-pyrazolo[3,4-d]pyrimidin-4-one] | 51% |  | 
> 30 µM | CCOc1nc2nn(-c3ncc(Br)cc3Br)cc2c(=O)[nH]1 [Example 161, 2-(3,5-dibromopyridin-2-yl)-6-ethoxy-2,5-dihydro-4H-pyrazolo[3,4-d]pyrimidin-4-one] | 97% |  | 
> 30 µM | Cc1cc(C)c(-n2cc3c(=O)[nH]c(CCC(C)(F)F)nc3n2)c(O)c1 [Example 40, 6-(3,3-difluorobutyl)-2-(2-hydroxy-4,6-dimethylphenyl)-2,5-dihydro-4H-pyrazolo[3,4-d]pyrimidin-4-one] | 100% |  | 
> 30 µM | CCOc1nc2nn(-c3c(F)cc(C4CC4)cc3OC(F)F)cc2c(=O)[nH]1 [Example 107, 2-[4-cyclopropyl-2-(difluoromethoxy)-6-fluorophenyl]-6-ethoxy-2,5-dihydro-4H-pyrazolo[3,4-d]pyrimidin-4-one] | 99% |  | 
> 30 µM | CO[C@@H]1COCC[C@@H]1c1nc2nn(-c3c(C)cc(C4CC4)cc3C)cc2c(=O)[nH]1 (racemic) [Example 310, racemic mixture of 1,5-anhydro-3-[2-(4-cyclopropyl-2,6-dimethylphenyl)-4-oxo-4,5-dihydro-2H-pyrazolo[3,4-d]pyrimidin-6-yl]-2,3-dideoxy-4-O-methyl-D-erythro-pentitol and 1,5-anhydro-3-[2-(4-cyclopropyl-2,6-dimethylphenyl)-4-oxo-4,5-dihydro-2H-pyrazolo[3,4-d]pyrimidin-6-yl]-3,4-dideoxy-2-O-methyl-D-erythro-pentitol] |  | 99% | 
> 30 µM | CCCOc1nc2nn(-c3c(C)cc(C)cc3O)cc2c(=O)[nH]1 [Example 4, 2-(2-hydroxy-4,6-dimethylphenyl)-6-propoxy-2,5-dihydro-4H-pyrazolo[3,4-d]pyrimidin-4-one] | 92% |  | 
> 30 µM | CCOc1nc2nn(-c3c(C)cc(C4CC4)cc3C(F)F)cc2c(=O)[nH]1 [Example 216, 2-[4-cyclopropyl-2-(difluoromethyl)-6-methylphenyl]-6-ethoxy-2,5-dihydro-4H-pyrazo lo[3,4-d]pyrimidin-4-one] | 104% |  | 
> 30 µM | Cc1cc(C)c(-n2cc3c(=O)[nH]c(O[C@H]4CCOC4)nc3n2)c(O)c1 [Example 14, 2-(2-hydroxy-4,6-dimethylphenyl)-6-{[(3S)-oxolan-3-yl]oxy}-2,5-dihydro-4H-pyrazolo[3,4-d]pyrimidin-4-one] | 96% |  | 
> 30 µM | CCOc1nc2nn(-c3c(C)cc(C4CC4)cc3C)cc2c(=O)n1C [Example 141, 2-(4-cyclopropyl-2,6-dimethylphenyl)-6-ethoxy-5-methyl-2,5-dihydro-4H-pyrazolo[3,4-d]pyrimidin-4-one] |  |  | 95%
> 30 µM | CCn1ncc(-c2nc3nn(-c4c(C)cc(C5CC5)cc4C)cc3c(=O)[nH]2)n1 [Example 257, 2-(4-cyclopropyl-2,6-dimethylphenyl)-6-(2-ethyl-2H-1,2,3-triazol-4-yl)-2,5-dihydro-4H-pyrazolo[3,4-d]pyrimidin-4-one] |  | 99% | 
> 30 µM | CCOc1nc2nn(-c3c(C)cc(C4CC4)cc3C)cc2c(=O)[nH]1 [Example 132, 2-(4-cyclopropyl-2,6-dimethylphenyl)-6-ethoxy-2,5-dihydro-4H-pyrazolo[3,4-d]pyrimidin-4-one] | 99% |  | 
> 30 µM | CCOc1nc2nn(-c3c(F)cc(C)cc3OC)cc2c(=O)[nH]1 [Example 93, 6-ethoxy-2-(2-fluoro-6-methoxy-4-methylphenyl)-2,5-dihydro-4H-pyrazolo[3,4-d]pyrimidin-4-one] | 80% |  | 
> 30 µM | CCOc1nc2nn(-c3c(F)cc(C4CC4)cc3F)c(C)c2c(=O)[nH]1 [Example 123, 2-(4-cyclopropyl-2,6-difluorophenyl)-6-ethoxy-3-methyl-2,5-dihydro-4H-pyrazolo[3,4-d]pyrimidin-4-one] | 95% |  | 

The next lines start with the compound.

SMILES | IC50 [1] | inhibition at 0.3 µM [2] | inhibition at 6 µM [2] | inhibition at 10 µM ([2]; THP-1, 10 μM, read-out: IL-1β inhibitory rate at 10 μM (%))
Cc1ccc(-n2cc3c(=O)[nH]c(OC4CC5(COC5)C4)nc3n2)c(C)c1 [Example 199, 2-(2,4-dimethylphenyl)-6-[(2-oxaspiro[3.3]heptan-6-yl)oxy]-2,5-dihydro-4H-pyrazolo[3,4-d]pyrimidin-4-one] | > 30 µM | 52% |  | 
Cc1cc(C2CC2)cc(C)c1-n1cc2c(=O)[nH]c([C@H]3CC3(F)F)nc2n1 [Example 191, 2-(4-cyclopropyl-2,6-dimethylphenyl)-6-(2,2-difluorocyclopropyl)-2,5-dihydro-4H-pyrazolo[3,4-d]pyrimidin-4-one] | > 30 µM | 109% |  | 
Cc1ccc(-n2nc3nc(OCC(C)(F)F)[nH]c(=O)c3c2C)c(O)c1 [Example 91, 6-(2,2-difluoropropoxy)-2-(2-hydroxy-4-methylphenyl)-3-methyl-2,5-dihydro-4H-pyrazolo[3,4-d]pyrimidin-4-one] | > 30 µM | 76% |  | 
Cc1cc(C2CC2)cc(C)c1-n1cc2c(=O)[nH]c(-c3cc4n(n3)CCOC4)nc2n1 [Example 218, 2-(4-cyclopropyl-2,6-dimethylphenyl)-6-(6,7-dihydro-4H-pyrazolo[5,1-c][1,4]oxazin-2-yl)-2,5-dihydro-4H-pyrazolo[3,4-d]pyrimidin-4-one] | > 30 µM | 106% |  | 
Cc1ccc(-n2cc3c(=O)[nH]c(OCC(C)OCc4ccccc4)nc3n2)c(C)c1 (racemic) [Example 99, 6-[2-(benzyloxy)propoxy]-2-(2,4-dimethylphenyl)-2,5-dihydro-4H-pyrazolo[3,4-d]pyrimidin-4-one] | > 30 µM | 41% |  | 
CCOc1nc2nn(-c3ccc(C)cc3O)c(Cl)c2c(=O)[nH]1 [Example 31, 3-chloro-6-ethoxy-2-(2-hydroxy-4-methylphenyl)-2,5-dihydro-4H-pyrazolo[3,4-d]pyrimidin-4-one] | > 30 µM | 99% |  | 
Cc1cc(C)c(-n2cc3c(=O)[nH]c(OCC(F)F)nc3n2)c(O)c1 [Example 32, 6-(2,2-difluoroethoxy)-2-(2-hydroxy-4,6-dimethylphenyl)-2,5-dihydro-4H-pyrazolo[3,4-d]pyrimidin-4-one] | > 30 µM | 105% |  | 
O=c1[nH]c([C@H]2COCCO2)nc2nn(-c3c(F)cc(C4CC4)cc3C(F)F)cc12 (single isomer, unassigned) [Example 312, 2-[4-cyclopropyl-2-(difluoromethyl)-6-fluorophenyl]-6-[(2R)-1,4-dioxan-2-yl]-2,5-dihydro-4H-pyrazolo[3,4-d]pyrimidin-4-one or 2-[4-cyclopropyl-2-(difluoromethyl)-6-fluorophenyl]-6-[(2S)-1,4-dioxan-2-yl]-2,5-dihydro-4H-pyrazolo [3,4-d]pyrimidin-4-one] | > 30 µM |  | 104% | 
CCOc1nc2nn(-c3c(C(F)(F)F)cc(C4CC4)nc3C)cc2c(=O)[nH]1 [Example 269, 2-[6-cyclopropyl-2-methyl-4-(trifluoromethyl)pyridin-3-yl]-6-ethoxy-2,5-dihydro-4H-pyrazolo[3,4-d]pyrimidin-4-one] | > 30 µM |  | 100% | 
CCOc1nc2nn(-c3ccc(C)cc3F)cc2c(=O)[nH]1 [Example 113, 6-ethoxy-2-(2-fluoro-4-methylphenyl)-2,5-dihydro-4H-pyrazolo[3,4-d]pyrimidin-4-one] | > 30 µM | 67% |  | 
COCCOc1nc2nn(-c3c(C)cc(C4CC4)cc3C)cc2c(=O)[nH]1 [Example 194, 2-(4-cyclopropyl-2,6-dimethylphenyl)-6-(2-methoxyethoxy)-2,5-dihydro-4H-pyrazolo[3,4-d]pyrimidin-4-one] | > 30 µM | 100% |  | 
CCOc1nc2nn(-c3ccc(C)cc3O)c(C)c2c(=O)[nH]1 [Example 127, 6-ethoxy-2-(2-hydroxy-4-methylphenyl)-3-methyl-2,5-dihydro-4H-pyrazolo[3,4-d]pyrimidin-4-one] | > 30 µM | 98% |  | 
CCOc1nc2nn(-c3c(C)cc(C4CC4)cc3F)cc2c(=O)[nH]1 [Example 39, 2-(4-cyclopropyl-2-fluoro-6-methylphenyl)-6-ethoxy-2,5-dihydro-4H-pyrazolo[3,4-d]pyrimidin-4-one] | > 30 µM | 100% |  | 
CCOc1nc2nn(-c3c(F)cc(C)cc3CC(F)(F)F)cc2c(=O)[nH]1 [Example 134, 6-ethoxy-2-[2-fluoro-4-methyl-6-(2,2,2-trifluoroethyl)phenyl]-2,5-dihydro-4H-pyrazolo[3,4-d]pyrimidin-4-one] | > 30 µM | 96% |  | 
CCOc1nc2nn(-c3c(C)cc(C4CC4)cc3Br)cc2c(=O)[nH]1 [Example 151, 2-(2-bromo-4-cyclopropyl-6-methylphenyl)-6-ethoxy-2,5-dihydro-4H-pyrazolo[3,4-d]pyrimidin-4-one] | > 30 µM | 98% |  | 
